The text below walks through data of patent US20240279236A1, “COMPOUNDS AND METHODS OF TREATING TUBERCULOSIS” (Fimbrion Therapeutics, Inc., priority 2021, published 2024).

One test relates to WT Mtb Erdman strain. Briefly: Microplate Alamar Blue Assay (MABA), Mtb growth inhibition. Format: cell-based, Mycobacterium tuberculosis. The following applies: Middlebrook 7H9 media, 7 days at 37° C. in 5% CO2. (Resazurin is reduced to fluorescent resorufin, in cell work by metabolically active cells.)
The term IC50 denotes the concentration that inhibits the measured activity by half. In the case of `Cc1cc2c(NCCCc3ccc(-c4ccc(OC(F)(F)F)cc4)cc3)nc(N(C)C)nc2s1` [Example 535, N2,N2,6-trimethyl-N4-(3-(4′-(trifluoromethoxy)-[1,1′-biphenyl]-4-yl)propyl)thieno[2,3-d]pyrimidine-2,4-diamine], the half-maximal inhibitory concentration (IC50) amounted to 4 nM.

Staying with this test, now noted: Mycobacterium tuberculosis, ERDMAN, 168 h, Middlebrook 7H9 media, 7 days at 37° C. in 5% CO2.
In the case of `Cc1cc2c(NCCCc3ccc(-c4ccc(OC(F)(F)F)cc4)cc3)nc(N3CCC3)nc2s1` [Example 533, 2-(azetidin-1-yl)-6-methyl-N-(3-(4′-(trifluoromethoxy)-[1,1′-biphenyl]-4-yl)propyl)thieno[2,3-d]pyrimidin-4-amine], the IC50 was 930 nM. Still for that read-out and setting: then `Cc1cc2c(NCCCc3ccc(-c4ccc(OC(F)(F)F)cc4)cc3)nc(N3CCC(F)(F)C3)nc2s1` [Example 534, 2-(3,3-difluoropyrrolidin-1-yl)-6-methyl-N-(3-(4′-(trifluoromethoxy)-[1,1′-biphenyl]-4-yl)propyl)thieno[2,3-d]pyrimidin-4-amine], with 86 nM; and `CN(C)c1nc(NCCCc2ccc(-c3ccc(OC(F)(F)F)cc3)cc2)c2ncsc2n1` [Example 536, N5,N5-dimethyl-N7-(3-(4′-(trifluoromethoxy)-[1,1′-biphenyl]-4-yl)propyl)thiazolo[5,4-d]pyrimidine-5,7-diamine], with 88 nM; and `Cc1cc2c(NCCCc3ccc(-c4ccc(OC(F)(F)F)cc4)cc3)nc(N)nc2s1` [Example 537, 6-methyl-N4-(3-(4′-(trifluoromethoxy)-[1,1′-biphenyl]-4-yl)propyl)thieno[2,3-d]pyrimidine-2,4-diamine], with 130 nM.

Consider `CCN(C)c1nc(NCCCc2ccc(-c3ccc(OC(F)(F)F)cc3)cc2)c2cc(C)sc2n1` [Example 538, N2-ethyl-N2,6-dimethyl-N4-(3-(4′-(trifluoromethoxy)-[1,1′-biphenyl]-4-yl)propyl)thieno[2,3-d]pyrimidine-2,4-diamine], for which inhibition was half-maximal at 100 nM (IC50). Compound `CNc1nc(NCCCc2ccc(-c3ccc(N(C)C)cc3)cc2)c2cc(C)sc2n1` [Example 539, N4-(3-(4′-(dimethylamino)-[1,1′-biphenyl]-4-yl)propyl)-N2,6-dimethylthieno[2,3-d]pyrimidine-2,4-diamine] showed a 50% inhibitory concentration (IC50) of 68 nM. As to `CCOc1nc(NCCCc2ccccc2)c2ccsc2n1` [Example 542, 2-ethoxy-N-(3-phenylpropyl)thieno[2,3-d]pyrimidin-4-amine], it took 150 nM to reach half-maximal inhibition (IC50). Still for that read-out and setting: then `CCOc1nc(NCCCc2ccccc2)c2cc(C)sc2n1` [Example 543, 2-ethoxy-6-methyl-N-(3-phenylpropyl)thieno[2,3-d]pyrimidin-4-amine], with 130 nM; and `COc1nc(NCCCc2ccc(-c3ccc(OC(F)(F)F)cc3)cc2)c2cc(C)sc2n1` [Example 545, 2-methoxy-6-methyl-N-(3-(4′-(trifluoromethoxy)-[1,1′-biphenyl]-4-yl)propyl)thieno[2,3-d]pyrimidin-4-amine], with 10 nM. Same read-out and setting: as for `CCOc1nc(NCCCc2ccc(-c3ccc(OC(F)(F)F)cc3)cc2)c2cc(C)sc2n1` [Example 546, 2-ethoxy-6-methyl-N-(3-(4′-(trifluoromethoxy)-[1,1′-biphenyl]-4-yl)propyl)thieno[2,3-d]pyrimidin-4-amine], the figure is 15 nM.

For `COc1nc(NCCCc2ccc(-c3ccc(OC(F)(F)F)cc3)cc2)c2nc(C)sc2n1` [Example 547, 5-methoxy-2-methyl-N-(3-[4′-(trifluoromethoxy)-[1,1′-biphenyl]-4-yl]propyl)-[1,3]thiazolo[5,4-d]pyrimidin-7-amine], half-maximal inhibition (IC50) was put at 33 nM. For `Cc1cc2c(NCCCc3ccc(-c4ccc([N+](=O)[O-])cc4)cc3)nc(N3CCCC3)nc2s1` [Example 549, 6-methyl-N-(3-(4′-nitro-[1,1′-biphenyl]-4-yl)propyl)-2-(pyrrolidin-1-yl)thieno[2,3-d]pyrimidin-4-amine], 29 nM corresponded to half-maximal inhibition (IC50). On the same count and under the same terms, then `Cc1cc2c(NCCCc3ccc(-c4ccc(F)nc4)cc3)nc(N(C)C)nc2s1` [Example 555, N4-(3-[4-(6-fluoropyridin-3-yl)phenyl]propyl)-N2,N2,6-trimethylthieno[2,3-d]pyrimidine-2,4-diamine], with 29 nM. Same read-out and setting: as for `Cc1cc2c(NCCCc3ccc(-c4ccc(F)cc4)cc3)nc(N(C)C)nc2s1` [Example 556, N4-(3-(4′-fluoro-[1,1′-biphenyl]-4-yl)propyl)-N2,N2,6-trimethylthieno[2,3-d]pyrimidine-2,4-diamine], the figure is under 4 nM; as for `Cc1cc2c(NCCCc3ccc(-c4ccc(C(F)(F)F)cn4)cc3)nc(N(C)C)nc2s1` [Example 557, N2,N2,6-trimethyl-N4-(3-(4-[5-(trifluoromethyl)pyridin-2-yl]phenyl)propyl)thieno[2,3-d]pyrimidine-2,4-diamine], under 4 nM. As for `Cc1cc2c(NCCCc3ccc(-c4ncc(C(F)(F)F)cn4)cc3)nc(N(C)C)nc2s1` [Example 558, N2,N2,6-trimethyl-N4-(3-(4-[5-(trifluoromethyl)pyrimidin-2-yl]phenyl)propyl)thieno[2,3-d]pyrimidine-2,4-diamine], the IC50 is under 4 nM. Still for that read-out and setting: then `Cc1cnc(-c2ccc(CCCNc3nc(N(C)C)nc4sc(C)cc34)cc2)cn1` [Example 559, N2,N2,6-trimethyl-N4-(3-[4-(5-methylpyrazin-2-yl)phenyl]propyl)thieno[2,3-d]pyrimidine-2,4-diamine], with 11 nM.

Compound `CCOc1nc(NCCCc2ccc(-c3cnc(C(F)(F)F)cn3)cc2)c2cc(C)sc2n1` [Example 560, 2-ethoxy-6-methyl-N-(3-(4-[5-(trifluoromethyl)pyrazin-2-yl]phenyl)propyl)thieno[2,3-d]pyrimidin-4-amine] showed a half-inhibitory concentration (IC50) of 50 nM.

`COc1nc(NCCCc2ccc(-c3cnc(F)cn3)cc2)c2cc(C)sc2n1` [Example 561, N-(3-[4-(5-fluoropyrazin-2-yl)phenyl]propyl)-2-methoxy-6-methylthieno[2,3-d]pyrimidin-4-amine] registered a half-inhibitory concentration (IC50) of 31 nM. Same read-out and setting: then `CCc1nc(NCCCc2c[nH]nn2)c2cc(C)sc2n1` [Example 562, N-(3-(1H-1,2,3-triazol-4-yl)propyl)-2-ethyl-6-methylthieno[2,3-d]pyrimidin-4-amine], with over 10000 nM.

Compound `CCc1nc(NCCCc2cn(-c3ccccc3)nn2)c2cc(C)sc2n1` [Example 563, 2-ethyl-6-methyl-N-(3-(1-phenyl-1H-1,2,3-triazol-4-yl)propyl)thieno[2,3-d]pyrimidin-4-amine] had a concentration for half-maximal inhibition (IC50) of 4700 nM. Compound `CNC(=O)c1nc(NCCCc2ccc(OC(F)(F)F)cc2)c2cc(C)sc2n1` [Example 564, N,6-dimethyl-4-((3-(4-(trifluoromethoxy)phenyl)propyl)amino)thieno[2,3-d]pyrimidine-2-carboxamide] registered an IC50 of 1200 nM.

On to `Cc1cc2c(NCCCc3ccc(OC(F)(F)F)cc3)nc(C(=O)NC3CC3)nc2s1` [Example 565, N-cyclopropyl-6-methyl-4-((3-(4-(trifluoromethoxy)phenyl)propyl)amino)thieno[2,3-d]pyrimidine-2-carboxamide], for which the 50% inhibitory concentration (IC50) came out at 4300 nM.

Compound `Cc1cc2c(N[C@H]3C[C@@H]3c3ccc(F)c(F)c3)nc(-c3ccc[nH]3)nc2s1` [Example 566, N-((1S,2R)-2-(3,4-difluorophenyl)cyclopropyl)-6-methyl-2-(1H-pyrrol-2-yl)thieno[2,3-d]pyrimidin-4-amine] had an IC50 of 1600 nM. Same read-out and setting: then `Cc1cc2c(NCCCc3ccc(-c4ccc(OC(F)(F)F)cc4)cc3)nc(-c3ccc[nH]3)nc2s1` [Example 567, 6-methyl-2-(1H-pyrrol-2-yl)-N-(3-(4′-(trifluoromethoxy)-[1,1′-biphenyl]-4-yl)propyl)thieno[2,3-d]pyrimidin-4-amine], with under 4 nM. Compound `Cc1cc2c(NCCCc3ccc(-c4ccc(OC(F)(F)F)cc4)cc3)nc(-c3cc[nH]c3)nc2s1` [Example 568, 6-methyl-2-(1H-pyrrol-3-yl)-N-(3-(4′-(trifluoromethoxy)-[1,1′-biphenyl]-4-yl)propyl)thieno[2,3-d]pyrimidin-4-amine] had a half-inhibitory concentration (IC50) of over 1000 nM. With `Cc1cc2c(NCCCc3ccc(-c4ccc([N+](=O)[O-])cc4)cc3)nc(-c3cc[nH]c3)nc2s1` [Example 569, 6-methyl-N-(3-(4′-nitro-[1,1′-biphenyl]-4-yl)propyl)-2-(1H-pyrrol-3-yl)thieno[2,3-d]pyrimidin-4-amine], the IC50 was found to be 70 nM. As for `Cc1cc2c(NCCCc3ccc(-c4ccc(C(F)(F)F)cn4)cc3)nc(-c3cc[nH]c3)nc2s1` [Example 570, 6-methyl-2-(1H-pyrrol-3-yl)-N-(3-(4-(5-(trifluoromethyl)pyridin-2-yl)phenyl)propyl)thieno[2,3-d]pyrimidin-4-amine], the IC50 came to 230 nM. The compound `FC(F)(F)Oc1ccc(-c2ccc(CCCNc3nc(-c4ccc[nH]4)nc4sccc34)cc2)cc1` [Example 574, 2-(1H-pyrrol-2-yl)-N-(3-(4′-(trifluoromethoxy)-[1,1′-biphenyl]-4-yl)propyl)thieno[2,3-d]pyrimidin-4-amine] displayed an IC50 of over 520 nM. Still for that read-out and setting: as for `Cc1cc2c(NCCCc3ccc(-c4cnc(N5CCCC5)cn4)cc3)nc(N3CCCC3)nc2s1` [Example 575, 6-methyl-2-(pyrrolidin-1-yl)-N-(3-(4-(5-(pyrrolidin-1-yl)pyrazin-2-yl)phenyl)propyl)thieno[2,3-d]pyrimidin-4-amine], the figure is 91 nM.

For the compound `CCc1nc(NC(=O)CCCc2ccccc2)c2cc(C)sc2n1` [Example 576, N-(2-ethyl-6-methylthieno[2,3-d]pyrimidin-4-yl)-4-phenylbutanamide], half-maximal inhibition (IC50) required 3400 nM.

For `Cc1cc2c(NC(=O)CCc3ccccc3)nc(-c3ccoc3)nc2s1` [Example 577, N-(2-(furan-3-yl)-6-methylthieno[2,3-d]pyrimidin-4-yl)-3-phenylpropanamide], the 50% inhibitory concentration (IC50) was found to be 71 nM.

`Cc1cc2c(NCCCc3ccccc3)nc(S(C)(=O)=O)nc2s1` [Example 578, 6-methyl-2-(methylsulfonyl)-N-(3-phenylpropyl)thieno[2,3-d]pyrimidin-4-amine] returned an IC50 of 4000 nM. The same measure, in the same setting: as for `Cc1cc2c(NCCCc3ccccc3)nc(C(=O)O)nc2s1` [Example 579, 6-methyl-4-((3-phenylpropyl)amino)thieno[2,3-d]pyrimidine-2-carboxylic acid], the figure is over 10000 nM.
